Patent publication US20240293558A1, “KRAS INHIBITOR CONJUGATES” (Erasca, Inc., priority 2021, published 2024)

Experiments:
KRAS (WT) = target: T1, KRAS (WT) (Homo sapiens, UniProt P01116); assay: In-vitro RAS-RAF binding assay (RRB), HTRF/FRET; type: biochemical; settings: Table 2, average of multiple runs of each compound; read-out: Inhibition of RAS-RAF Binding (in-vitro) KRAS (WT) IC50
T1 construct: Biotinylated KRAS protein amino acids 1-169 (produced at Erasca); made in house
Outline: (§1)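 Biotinylated KRAS 1-169 (streptavidin-terbium donor, 30 nM) and GST-cRAF RBD (anti-GST d2 acceptor, 30 nM) in HEPES pH 7.5, NaCl, MgCl2, DTT buffer. After compound incubation, SOS1 catalytic domain plus GTPgS drive 60 min nucleotide exchange. HTRF FRET read at equilibrium, in duplicate.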

KRAS G12D = KRAS G12D (Homo sapiens, UniProt P01116, G12D); assay: In-vitro RAS-RAF binding assay (RRB), HTRF/FRET; type: biochemical; parameters: Biotinylated KRAS protein amino acids 1-169 (produced at Erasca); made in house; settings: Table 2, average of multiple runs of each compound; read-out: Inhibition of RAS-RAF Binding (in-vitro) KRAS (G12D) IC50
KRAS G12D, sequence (P01116 1-169 isoform P01116-2 G12D): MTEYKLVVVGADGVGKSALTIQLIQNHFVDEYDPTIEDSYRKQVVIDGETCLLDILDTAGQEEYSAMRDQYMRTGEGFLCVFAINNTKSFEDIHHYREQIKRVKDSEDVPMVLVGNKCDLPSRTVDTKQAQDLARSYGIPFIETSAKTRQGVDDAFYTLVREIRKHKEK
Outline: as §1

T1 sequence (P01116 1-169 isoform P01116-2): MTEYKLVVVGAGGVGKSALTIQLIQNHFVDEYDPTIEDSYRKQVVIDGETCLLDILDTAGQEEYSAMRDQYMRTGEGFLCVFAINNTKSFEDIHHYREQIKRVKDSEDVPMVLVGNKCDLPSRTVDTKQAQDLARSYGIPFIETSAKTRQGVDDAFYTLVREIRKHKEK

| IC50 (KRAS (WT)) [nM] | IC50 (KRAS G12D) [nM] | SMILES |
| --- | --- | --- |
| ≥ 10000 | 19.8 | CC(C)[C@@H](C(=O)N1C[C@H](O)C[C@H]1C(=O)N[C@@H](C)c1ccc(-c2c(F)cccc2F)cc1)c1cc(OCC2(C)CCN(CCOc3nc(N4CC5CCC(C4)N5)c4cc(Cl)c(-c5ccc(F)c6sc(N)c(C#N)c56)c(F)c4n3)CC2)no1 [Example 66, (2S,4R)-1-((2R)-2-(3-((1-(2-((7-(2-amino-3-cyano-7-fluorobenzo[b]thiophen-4-yl)-4-(3,8-diazabicyclo[3.2.1]octan-3-yl)-6-chloro-8-fluoroquinazolin-2-yl)oxy)ethyl)-4-methylpiperidin-4-yl)methoxy)isoxazol-5-yl)-3-methylbutanoyl)-N-((S)-1-(2′,6′-difluoro-[1,1′-biphenyl]-4-yl)ethyl)-4-hydroxypyrrolidine-2-carboxamide] |
| 26.5 | 8.88 | C#Cc1c(F)ccc2cc(O)cc(-c3ncc4c(N5CC6CCC(C5)N6)nc(OC[C@@H]5CCCN5CCCOCCC(=O)N[C@H](C(=O)N5C[C@H](O)C[C@H]5C(=O)N[C@@H](C)c5ccc(-c6ccccc6C#N)cc5)C(C)(C)C)nc4c3F)c12 [Example 40, (2S,4R)-1-((2S)-2-(3-(3-((2S)-2-(((4-(3,8-diazabicyclo[3.2.1]octan-3-yl)-7-(8-ethynyl-7-fluoro-3-hydroxynaphthalen-1-yl)-8-fluoropyrido[4,3-d]pyrimidin-2-yl)oxy)methyl)pyrrolidin-1-yl)propoxy)propanamido)-3,3-dimethylbutanoyl)-N-((S)-1-(2′-cyano-[1,1′-biphenyl]-4-yl)ethyl)-4-hydroxypyrrolidine-2-carboxamide] |
| 1200 | 8.99 | C#Cc1c(F)ccc2cc(O)cc(-c3ncc4c(N5CC6CCC(C5)N6)nc(OCCN5CCC(C)(COc6cc([C@H](C(=O)N7C[C@H](O)C[C@H]7C(=O)N[C@@H](C)c7ccc(-c8c(F)cccc8F)cc7)C(C)C)on6)CC5)nc4c3F)c12 [Example 61, (2S,4R)-1-((2R)-2-(3-((1-(2-((4-(3,8-diazabicyclo[3.2.1]octan-3-yl)-7-(8-ethynyl-7-fluoro-3-hydroxynaphthalen-1-yl)-8-fluoropyrido[4,3-d]pyrimidin-2-yl)oxy)ethyl)-4-methylpiperidin-4-yl)methoxy)isoxazol-5-yl)-3-methylbutanoyl)-N-((S)-1-(2′,6′-difluoro-[1,1′-biphenyl]-4-yl)ethyl)-4-hydroxypyrrolidine-2-carboxamide] |
| 27.9 | 9.31 | C#Cc1c(F)ccc2cc(O)cc(-c3ncc4c(N5CC6CCC(C5)N6)nc(OC[C@@H]5CCCN5CCCOCCC(=O)N[C@H](C(=O)N5C[C@H](O)C[C@H]5C(=O)N[C@@H](CO)c5ccc(-c6scnc6C)cc5)C(C)(C)C)nc4c3F)c12 [Example 29, (2S,4R)-1-((2S)-2-(3-(3-((2S)-2-(((4-(3,8-diazabicyclo[3.2.1]octan-3-yl)-7-(8-ethynyl-7-fluoro-3-hydroxynaphthalen-1-yl)-8-fluoropyrido[4,3-d]pyrimidin-2-yl)oxy)methyl)pyrrolidin-1-yl)propoxy)propanamido)-3,3-dimethylbutanoyl)-4-hydroxy-N—((R)-2-hydroxy-1-(4-(4-methylthiazol-5-yl)phenyl)ethyl)pyrrolidine-2-carboxamide] |
| > 10000 | > 10000 | C[C@H](NC(=O)[C@@H]1C[C@@H](O)CN1C(=O)[C@@H](NC(=O)CCOCCCN1CCC[C@H]1COc1nc(N2CC3CCC(C2)N3)c2cc(C(F)(F)F)c(-c3ccc(F)c4sc(N)c(C#N)c34)c(F)c2n1)C(C)(C)C)c1ccc(-c2c(F)cccc2F)cc1 [Example 79, (2S,4R)-1-((2S)-2-(3-(3-((2S)-2-((((7R)-7-(2-amino-3-cyano-7-fluorobenzo[b]thiophen-4-yl)-4-(3,8-diazabicyclo[3.2.1]octan-3-yl)-8-fluoro-6-(trifluoromethyl)quinazolin-2-yl)oxy)methyl)pyrrolidin-1-yl)propoxy)propanamido)-3,3-dimethylbutanoyl)-N-((S)-1-(2′,6′-difluoro-[1,1′-biphenyl]-4-yl)ethyl)-4-hydroxypyrrolidine-2-carboxamide] |
